In patent publication US4704384A, “Aziridinyl quinone antitumor agents” (priority 1981, dated 1987):
Several values for one entry are separate records, joined by “and”; a condition that tells them apart may be missing. Equal entries are not always repeated. Entries after “also recorded” stand apart in the source; their conditions may differ. Where two headings read alike, the source gives them in different places.

Key:
[1] = system: lymphocytic leukemia P388; assay type: in vivo, murine; conditions: for survivors, P388: Table XI, parentheses, per 6
B16 melanocarcinoma = assay type: in vivo, murine
Lewis lung carcinoma = Lewis lung carcinoma test (subcutaneous implant, IP drug); assay type: in vivo, murine
Source text: ^c Subcutaneous tumor implantation, ip QD515 treatment schedule.

lymphoid leukemia L1210 [2] = assay type: in vivo, murine
Source text: (§1) A third IC tumor model, the ependymoblastoma system, was also studied. This system requires intracerebral implantation of a solid tumor fragment while the IC L1210 and IC P388 systems utilize IC inoculated ascites tumor fluid. All three use IP drug treatment however. […] Cures (survivors from the group of six mice on the last day of the experiment) are indicated.

[3] = system: lymphocytic leukemia P388; assay: Intracerebral (IC) P388 antitumor test; assay type: in vivo, murine; conditions: for ILS: IP
Source text: as §1

ependymoblastoma = assay type: in vivo, murine; conditions: for survivors, EM: parentheses, per 6
Source text: ^c Ic tumor implantation, ip QD15 treatment schedule.
as §1

[4] = Approximation of human dose from mouse optimum dose; conditions: approximated from optimum dose of 2 mg/kg in the mouse
Experimental: Using the assumptions and constants of Freireich et al., Cancer Chemother. Rep., 50, 219 (1966), and an optimum dose of 2 mg/kg in the mouse, an average human maximum tolerated dose of 10 mg per dose can be approximated. An active dose range of 2.5-10 mg per dose can be estimated.

lymphoid leukemia L1210 [5] = system: lymphoid leukemia L1210
Source text: ^b Ip tumor implantation, ip QD19 treatment schedule.
^e ILS = [(treated survival + control survival) × 100%] - 100%
The L1210, P388 and B16 test systems described in Table II utilize intraperitoneal (IP) tumor implantation and IP drug treatment while the Lewis lung system employs subcutaneous tumor implantation and IP treatment. All three CNS tumor models (Table III) use intracerebral (IC) tumor implantation and IP treatment.
Aqueous saline solution (0.9%) was used as the drug vehicle. Normally, five doses were employed per experiment with the top dose chosen to produce toxicity. The lower doses were 50% of each preceeding dose.
Consistent with NCI antitumor test protocols, intraperitoneal (IP) administration of the drug was employed with all five tumor systems investigated. Tumor implantation was IP in the systems designated IP leukemia L1210 and P388 as well as B16 melanoma. Intracerebral (IC) tumor implantation was utilized in the IC L1210 and ependymoblastoma tumor systems.

[6] = Room temperature water solubility; assay type: physicochemical
Experimental: In the following examples, all melting points are uncorrected and were recorded on a Thomas-Hoover capillary melting point apparatus. Elemental analyses were performed by NIAMDD, NIH, Bethesda, Md. Fluoranil, ethyleneimine and 2-methylethyleneimine were obtained commercially. […] New compounds were identified by nmr and ir spectroscopy. In the tetraamino derivatives, the methylene protons of the aziridine rings usually occurred as a singlet at δ2.0-2.2 in CDCl3 or DMSO-d6. This absorption appeared at δ2.40 (CDCl3) for compound 11. Carbonyl absorption frequencies (nujol mull) occurred in the range 1620-1640 cm^-1 for the tetraamino compounds. Satisfactory elemental analyses (+0.4% of calculated values) are indicated by elemental symbols in Table VII. Room temperature water solubilities were determined by the incremental addition (pipet) of water to a weighed amount of compound with shaking. The solubility values in Table VII must be considered as approximate.

[7] = IP, QD1-9, 1.56 mg/kg/injection
[8] = IP, QD1-9, 3.12 mg/kg/injection
[9] = IP, QD1-9, 6.25 mg/kg/injection

CCOC(=O)NC1=C(N2CC2)C(=O)C(NC(=O)OCC)=C(N2CC2)C1=O [Compound 9, 2,5-DIAZIRIDINYL-3,6-BIS(CARBOETHOXYAMINO)-1,4-BENZOQUINONE]
activity in IP P388 [1]: very active | optimum dose (OD) [1]: 1 to 2 mg/kg | ILS ([1]; IP, QD1-9, 0.78 mg/kg/injection): 111% and 99% | OD ([1]; Table IV, QD1-9): 1.6 mg/kg/injection and 0.8 mg/kg/injection | survivors of 6 test mice ([1]; Table IV, day 30): 1 | survivors, P388 [1]: 1 | T-C weight change ([1]; day 5, QD1-9, 6.25 mg/kg/injection): -6.1 grams | OD (B16 melanocarcinoma): 3.12 mg/kg | activity in B16 melanoma (B16 melanocarcinoma): very active | ILS (B16 melanocarcinoma; [7]): 38% and 44% and 58% | ILS (B16 melanocarcinoma; [8]): 58% and 43% and 70% | % ILS (B16 melanocarcinoma; Table IV summary, QD1-9, at OD): 94% and 70% and 62% | OD (B16 melanocarcinoma; Table IV, QD1-9): 3 mg/kg/injection | activity (ILS) (B16 melanocarcinoma; as high as, at OD of 3.12 mg/kg): ≤ 70% | activity in Lewis lung (Lewis lung carcinoma): Marginal activity | ILS (Lewis lung carcinoma; IP, 2.00 mg/kg/injection, 2 mg/kg): 38% and 34% | OD (lymphoid leukemia L1210 [2]): 3.12 mg/kg | activity in IC L1210 (lymphoid leukemia L1210 [2]): reproducible activity; also recorded: substantial | ILS (lymphoid leukemia L1210 [2]; [7]): 51% and 46% | ILS (lymphoid leukemia L1210 [2]; [8]): 84% and 79% | ILS (lymphoid leukemia L1210 [2]; [9]): 10% and 3% | % ILS (lymphoid leukemia L1210 [2]; Table IV summary, QD1-9, at OD): 84% and 79% and 63% and 58% | OD (lymphoid leukemia L1210 [2]; Table IV, QD1-9): 3 mg/kg/injection and 5 mg/kg/injection | ILS (lymphoid leukemia L1210 [2]; at OD 3.12 mg/kg): 79% and 84% | activity in IC P388 [3]: reproducible activity; also recorded: substantial | ILS ([3]; QD1-9, 0.39 mg/kg/injection): 7% and 2% | ILS ([3]; QD1-9, 0.78 mg/kg/injection): 27% and 25% | ILS ([3]; QD1-9, 1.56 mg/kg/injection): 37% and 51% | ILS ([3]; QD1-9, 3.12 mg/kg/injection): 39% and 31% | % ILS ([3]; Table IV summary, QD1-9, at OD): 51% and 39% | OD ([3]; Table IV, QD1-9): 1.5 mg/kg/injection and 3 mg/kg/injection | activity in ependymoblastoma (ependymoblastoma): curative in the EM system; also recorded: very active | optimum dose (ependymoblastoma): 1 to 2 mg/kg | Cures (animals alive per six) (ependymoblastoma; 1.00 mg/kg/injection, day 60 (expts 136/144)): 1/6 and 5/6 | Cures (animals alive per six) (ependymoblastoma; 1.00 mg/kg/injection, day 99 (expt 133)): 3/6 | Cures (animals alive per six) (ependymoblastoma; 2.00 mg/kg/injection, day 60 (expts 136/144)): 5/6 | Cures (animals alive per six) (ependymoblastoma; 2.00 mg/kg/injection, day 99 (expt 133)): 4/6 | Cures (animals alive per six) (ependymoblastoma; 4.00 mg/kg/injection, day 60): 4/6 | ILS (ependymoblastoma; QD1-5, 0.25 mg/kg/injection, expt 144): 30% | ILS (ependymoblastoma; QD1-5, 0.50 mg/kg/injection, expt 144): 62% | ILS (ependymoblastoma; QD1-5, 1.00 mg/kg/injection, expt 133 (day 99)): 348% | ILS (ependymoblastoma; QD1-5, 1.00 mg/kg/injection, expts 136/144 (day 60)): 126% and 171% | ILS (ependymoblastoma; QD1-5, 2.00 mg/kg/injection, expt 133 (day 99)): 349% | ILS (ependymoblastoma; QD1-5, 4.00 mg/kg/injection, expt 136 (day 60)): 276% | OD (ependymoblastoma; Table IV, QD1-5): 2 mg/kg/injection and 1 mg/kg/injection | survivors of 6 test mice (ependymoblastoma; Table IV, day 60): 5 and 4 and 6 | ILS (%) EM (ependymoblastoma; Table XI, outstanding activity): 277% | survivors, EM (ependymoblastoma; Table XI): 5 | T-C weight change (ependymoblastoma; day 5, 0.25 mg/kg/injection): -1.5 grams | T-C weight change (ependymoblastoma; day 5, 0.50 mg/kg/injection): -1.8 grams | T-C weight change (ependymoblastoma; day 5, 8.00 mg/kg/injection): -5.0 grams | average human maximum tolerated dose [4]: ~10 mg per dose | activity in IP L1210 (lymphoid leukemia L1210 [5]): greater L1210 activity on the QD1-9 schedule; also recorded: very active | ILS (lymphoid leukemia L1210 [5]; IP, QD1-9, 0.88 mg/kg/injection): 32% | ILS (lymphoid leukemia L1210 [5]; IP, QD1-9, 1.30 mg/kg/injection): 60% | ILS (lymphoid leukemia L1210 [5]; IP, QD1-9, 2.00 mg/kg/injection): 125% | ILS (lymphoid leukemia L1210 [5]; [9]): 27% | increase in life span (ILS) (lymphoid leukemia L1210 [5]; Q4D and QD1-9 schedules): > 25% | % ILS (lymphoid leukemia L1210 [5]; Q4D schedule): 54% | optimum dose (OD) (lymphoid leukemia L1210 [5]; QD1-9, mouse): 2 mg/kg and 2 to 3 mg/kg | ILS (lymphoid leukemia L1210 [5]; QD1-9, reproducible): > 100% | % ILS (lymphoid leukemia L1210 [5]; Table IV summary, QD1-9, at OD): 100% | OD (lymphoid leukemia L1210 [5]; Table IV, QD1-9): 3 mg/kg/injection and 2 mg/kg/injection and 4 mg/kg/injection

NC1=C(N2CC2)C(=O)C(N)=C(N2CC2)C1=O [Compound 33, 2,5-DIZAIRIDINYL-3,6-DIAMINO-1,4-BENZOQUINONE]
OD ([1]; QD1-9, Table IX): 0.2 mg/kg/injection | ILS ([1]; QD1-9, at OD, Table IX): 171% and 156% | animals alive per 6 ([1]; QD1-9, day 30, at OD, Table IX): 1 | survivors, P388 [1]: 1 | ILS (B16 melanocarcinoma; QD1-9, at OD, Table IX): 31% and 19% | activity in IC L1210 (lymphoid leukemia L1210 [2]): most active; also recorded: significant activity | OD (lymphoid leukemia L1210 [2]; QD1-9, Table X): 0.3 mg/kg/injection | ILS (lymphoid leukemia L1210 [2]; QD1-9, at OD, Table X): 60% and 59% | activity in ependymoblastoma (ependymoblastoma): among the most active materials | OD (ependymoblastoma; QD1-5, Table X): 0.2 mg/kg/injection | ILS (ependymoblastoma; QD1-5, at OD, Table X): 215% and 177% | animals alive per 6 (ependymoblastoma; QD1-5, day 60, at OD, Table X): 4 and 6 | survivors, EM (ependymoblastoma; Table XI): 6 | solubility [6]: so insoluble in any solvent | OD (lymphoid leukemia L1210 [5]; Day 1 only (1 injection), Table VIII): 1.0 mg/kg/injection and 0.5 mg/kg/injection | ILS (lymphoid leukemia L1210 [5]; Q4D, at OD, Table VIII): 161% and 124% | animals alive per 6 (lymphoid leukemia L1210 [5]; Q4D, day 30, at OD, Table VIII): 3 and 2 | OD (lymphoid leukemia L1210 [5]; QD1-9 (9 injections), Table VIII): 0.4 mg/kg/injection and 0.3 mg/kg/injection | ILS (lymphoid leukemia L1210 [5]; QD1-9, at OD, Table VIII): 115% and 100% | survivors, IP L1210 (lymphoid leukemia L1210 [5]; Table XI, parentheses, per 6): 3
